Measured values from patent US7091024B2, “Enzyme PDE XVI” (Pfizer Inc., priority 1999, dated 2006).
Values joined by “and” are separate entries in the source; they are usually repeats but may differ in a detail not shown here. Equal values may be shown once.

Key:
PDE_XIV [1] = molecular target: T1, PDE_XIV (Homo sapiens, UniProt Q9NP56); assay: Phosphodiesterase inhibition studies on purified expressed PDE_XIV (cAMP SPA); format: biochemical; conditions: for IC50: N = 2, read-out: IC50 FOR PDEXIV (μM) (N = 2)
T1 construct: made in house; host or cells: Sf9 insect cells (baculovirus, pFASTBAC-FLAG)
T1 sequence (Q9NP56 whole entry): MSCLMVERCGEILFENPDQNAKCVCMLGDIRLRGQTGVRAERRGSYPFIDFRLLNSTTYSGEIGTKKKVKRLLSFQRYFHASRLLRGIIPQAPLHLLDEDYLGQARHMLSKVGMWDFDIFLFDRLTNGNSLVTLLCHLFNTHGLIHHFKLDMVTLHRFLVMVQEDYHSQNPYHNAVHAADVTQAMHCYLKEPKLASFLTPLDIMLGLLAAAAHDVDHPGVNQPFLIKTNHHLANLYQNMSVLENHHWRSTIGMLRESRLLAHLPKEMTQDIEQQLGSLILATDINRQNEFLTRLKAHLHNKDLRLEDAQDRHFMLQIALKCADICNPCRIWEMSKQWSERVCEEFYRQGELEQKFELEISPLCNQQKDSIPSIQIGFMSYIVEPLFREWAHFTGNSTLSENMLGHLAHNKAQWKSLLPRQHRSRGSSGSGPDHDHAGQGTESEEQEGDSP
Description: This allows the specific retention on the column of the recombinant material (since this is fused to the FLAG epitope) whilst the endogenous insect proteins are washed off in the eluate. The recombinant material is then washed off under conditions of low pH. […] The purity of the material is assessed by coomassie staining after sodium dodecyl sulphate-polyacrylamide gel electrophoresis (SDS-PAGE) or through western blotting onto a nitro-cellulose membrane of an unstained SDS-PAGE (containing recombinant PDE) and analysis with the IgG1 monoclonal anti-FLAG epitope antibody. The PDE-FLAG fusion protein is detected due to the interaction between the anti-FLAG antibody and the FLAG epitope which is fused to the PDE protein. The phosphodiesterase activity of the purified PDE-FLAG fusion protein was assayed using a commercially available SPA (scintillation proximity assay) kit (Amersham-Amersham place, Little Chalfont, Bucks, HP7 9NA UK) for either cAMP and/or cGMP hydrolytic activity.

PDE_XIV [2] = molecular target: T1, PDE_XIV; assay: cAMP Scintillation Proximity Assays on purified expressed PDE_XIV (substrate hydrolysis); format: biochemical

## COc1ccc([C@]2(C#N)CC[C@@H](C(=O)O)CC2)cc1OC1CCCC1 [Ariflo]
PDE_XIV [1]
  sensitivity of PDE_XIV to the PDE inhibitor: not to be sensitive
  IC50: > 30 µM

## OCCN(CCO)c1nc(N2CCCCC2)c2nc(N(CCO)CCO)nc(N3CCCCC3)c2n1 [Dipyridamole]
PDE_XIV [1]
  IC50: 10.7 µM

## CC(C)Cn1c(=O)n(C)c(=O)c2[nH]cnc21 [IBMX]
PDE_XIV [1]
  IC50: 9.32 µM and 9.72 µM

## Cc1[nH]c(=O)c(C#N)cc1-c1ccncc1 [Milrinone]
PDE_XIV [1]
  sensitivity of PDE_XIV to the PDE inhibitor: not to be sensitive
  IC50: > 30 µM

## COc1ccc(C2CNC(=O)C2)cc1OC1CCCC1 (stereo not drawn) [Rolipram]
PDE_XIV [1]
  sensitivity of PDE_XIV to the PDE inhibitor: not to be sensitive
  IC50: > 30 µM

## Nc1nc2c(ncn2[C@@H]2O[C@@H]3COP(=O)(O)O[C@H]3[C@H]2O)c(=O)[nH]1 [cGMP]
PDE_XIV [2]
  activity of PDE_XIV against the cyclic nucleotide: no activity
